Biological target: T1, EGFR (HCC827 cells) (Homo sapiens, UniProt P00533, DEL746-750)
T1 construct: endogenous in cells; host or cells: HCC827
Experiment: EGFR degradation HTRF assay, HCC827 cells
Assay type: cell-based
Conditions: HCC827, 16h treatment; for Dmax: maximum percentage of degradation
Description: BaF3 WT(wild type), BaF3-LTC(L858R/T790M/C797S) and BaF3-DTC(Del19/T790M/C797S) cells are treated with compounds diluted in 0.2% DMSO cell culture medium and incubate for 16h, 37° C., 5% CO2, H1975-#36, H1975-#28, H1975-#23 and HCC827 cells are treated with compounds diluted in 0.2% DMSO cell culture medium on day 2, incubate for 16h, 37° C., 5% CO2.the final concentriation of compounds in all assay is start with 10 uM, 5-fold dilution, total 8 doses were included.
After 16h treatment, add HTRF lysis buffer to each well; seal the plate and incubate 1 hour at room temperature on a plate shaker; Once the cells are lysed, 16 μL of cell lysate are transferred to a PE 384-well HTRF detection plate; 4 μL of pre-mixed HTRF antibodies are added to each well; Cover the plate with a plate sealer, spin 1000 rpm for 1 min, Incubate overnight at room temperature; Read on BMG PheraStar with HTRF protocol (337 nm-665 nm-620 nm).
The inhibition (degradation) percentage of the compound was calculated by the following equation: Inhibition percentage of Compound=100-100×(Signal-low control)/(High control-low control), wherein signal=each test compound group
High control=Cell group with added DMSO and without compound, indicating microplate readings without EGFR degradation;
Dmax is the maximum percentage of inhibition (degradation).
The IC50 (DC50) value of a compound can be obtained by fitting the following equation
Y=Bottom+(TOP−Bottom)/(1+((IC50/X)^hillslope))
Wherein, X and Y are known values, and IC50, Hillslope, Top and Bottom are the parameters obtained by fitting with software. Y is the inhibition percentage (calculated from the equation), X is the concentration of the compound; IC50 is the concentration of the compound when the 50% inhibition is reached. The smaller the IC50 value is, the stronger the inhibitory ability of the compound is. Vice versa, the higher the IC50 value is, the weaker the inhibitory ability of the compound is; Hillslope represents the slope of the fitted curve, generally around 1*; Bottom represents the minimum value of the curve obtained by data fitting, which is generally 0%±20%; Top represents the maximum value of the curve obtained by data fitting, which is generally 100%±20%. The experimental data were fitted by calculating and analyzing with Dotmatics data analysis software.

T1 sequence (P00533 with tags, fused parts or gaps DEL746-750): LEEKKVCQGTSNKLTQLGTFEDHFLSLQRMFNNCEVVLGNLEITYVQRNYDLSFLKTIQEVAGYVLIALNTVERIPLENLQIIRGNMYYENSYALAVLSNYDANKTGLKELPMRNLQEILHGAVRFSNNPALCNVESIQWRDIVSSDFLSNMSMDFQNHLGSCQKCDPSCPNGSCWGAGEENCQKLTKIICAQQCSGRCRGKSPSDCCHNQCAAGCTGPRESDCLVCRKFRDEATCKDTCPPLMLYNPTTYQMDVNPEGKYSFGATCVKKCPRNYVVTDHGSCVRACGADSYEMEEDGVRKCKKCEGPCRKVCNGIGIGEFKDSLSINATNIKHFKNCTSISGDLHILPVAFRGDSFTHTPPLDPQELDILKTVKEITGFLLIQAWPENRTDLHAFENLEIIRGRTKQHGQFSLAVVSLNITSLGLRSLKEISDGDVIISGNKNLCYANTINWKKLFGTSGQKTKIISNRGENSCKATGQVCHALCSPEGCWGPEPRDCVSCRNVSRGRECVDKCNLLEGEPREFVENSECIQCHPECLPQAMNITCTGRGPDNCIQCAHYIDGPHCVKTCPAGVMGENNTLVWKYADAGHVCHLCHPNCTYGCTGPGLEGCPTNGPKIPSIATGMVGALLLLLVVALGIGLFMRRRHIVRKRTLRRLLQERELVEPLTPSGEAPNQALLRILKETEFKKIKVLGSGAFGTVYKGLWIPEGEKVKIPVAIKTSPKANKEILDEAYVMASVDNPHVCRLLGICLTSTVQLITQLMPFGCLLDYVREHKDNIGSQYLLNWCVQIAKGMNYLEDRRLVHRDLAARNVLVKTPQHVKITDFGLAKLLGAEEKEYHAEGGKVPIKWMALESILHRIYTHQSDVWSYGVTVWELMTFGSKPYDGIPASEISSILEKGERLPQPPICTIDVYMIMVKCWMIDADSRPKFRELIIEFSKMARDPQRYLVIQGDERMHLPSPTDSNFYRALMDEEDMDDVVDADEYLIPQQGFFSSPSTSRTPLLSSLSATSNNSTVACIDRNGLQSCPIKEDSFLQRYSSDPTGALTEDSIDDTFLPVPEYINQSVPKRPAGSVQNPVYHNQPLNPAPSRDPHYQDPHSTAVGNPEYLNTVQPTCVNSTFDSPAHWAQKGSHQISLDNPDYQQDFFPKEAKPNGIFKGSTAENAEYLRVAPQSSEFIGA

| SMILES | DC50 [nM] | Dmax [%] |
| --- | --- | --- |
| COc1cc(N2CCC(N3CCN(CC4CCC(c5ccc(N6CCC(=O)NC6=O)cc5)CC4)CC3)CC2)ccc1Nc1ncc(Cl)c(Nc2ccccc2P(C)(C)=O)n1 (centres unmarked) [Example 110, 1-(4-(4-((4-(1-(4-((5-chloro-4-((2-(dimethylphosphoryl)phenyl)amino)pyrimidin-2-yl)amino)-3-methoxyphenyl)piperidin-4-yl)piperazin-1-yl)methyl)cyclohexyl)phenyl)dihydropyrimidine-2,4(1H,3H)-dione] | 49.6 | 81.2 |
| COc1cc(N2CCC(N3CCN(C(=O)CCCCN4CCN(c5ccc6c(c5)C(=O)N(C5CCC(=O)NC5=O)C6=O)CC4)CC3)CC2)ccc1Nc1ncc(Cl)c(Nc2ccccc2P(C)(C)=O)n1 (centres unmarked) [Example 114, 5-(4-(5-(4-(1-(4-((5-chloro-4-((2-(dimethylphosphoryl)phenyl)amino)pyrimidin-2-yl)amino)-3-methoxyphenyl)piperidin-4-yl)piperazin-1-yl)-5-oxopentyl)piperazin-1-yl)-2-(2,6-dioxopiperidin-3-yl)isoindoline-1,3-dione] | 8.23 | 82.4 |
| COc1cc(N2CCC(N3CCN(C(=O)CC4CCN(c5ccc(C6CCC(=O)NC6=O)cc5)CC4)CC3)CC2)ccc1Nc1ncc(Cl)c(Nc2ccccc2N(C)S(C)(=O)=O)n1 (centres unmarked) [Example 122, N-(2-((5-chloro-2-((4-(4-(4-(2-(1-(4-(2,6-dioxopiperidin-3-yl)phenyl)piperidin-4-yl)acetyl)piperazin-1-yl)piperidin-1-yl)-2-methoxyphenyl)amino)pyrimidin-4-yl)amino)phenyl)-N-methylmethanesulfonamide] | 6.37 | 69.2 |
| COc1cc(N2CCC(N3CCN(C(=O)CN4CCN(c5ccc6c(c5)C(=O)N(C5CCC(=O)NC5=O)C6)CC4)CC3)CC2)ccc1Nc1ncc(Cl)c(Nc2ccccc2N(C)S(C)(=O)=O)n1 (centres unmarked) [Example 130, N-(2-((5-chloro-2-((4-(4-(4-(2-(4-(2-(2,6-dioxopiperidin-3-yl)-3-oxoisoindolin-5-yl)piperazin-1-yl)acetyl)piperazin-1-yl)piperidin-1-yl)-2-methoxyphenyl)amino)pyrimidin-4-yl)amino)phenyl)-N-methylmethanesulfonamide] | 45.8 | 80.8 |
| COc1cc(N2CCC(NCCCCCCCc3ccc(C4CCC(=O)NC4=O)cc3)CC2)ccc1Nc1ncc(Cl)c(Nc2ccccc2N(C)S(C)(=O)=O)n1 (centres unmarked) [Example 132, N-(2-((5-chloro-2-((4-(4-((7-(4-(2,6-dioxopiperidin-3-yl)phenyl)heptyl)amino)piperidin-1-yl)-2-methoxyphenyl)amino)pyrimidin-4-yl)amino)phenyl)-N-methylmethanesulfonamide] | 34 | 80 |
| COc1cc(N2CCN(CCc3ccc(C4CCC(=O)NC4=O)cc3)CC2)ccc1Nc1ncc(Cl)c(Nc2ccccc2N(C)S(C)(=O)=O)n1 (centres unmarked) [Example 133, N-(2-((5-chloro-2-((4-(4-(4-(2,6-dioxopiperidin-3-yl)phenethyl)piperazin-1-yl)-2-methoxyphenyl)amino)pyrimidin-4-yl)amino)phenyl)-N-methylmethanesulfonamide] | 39.1 | 78.2 |
| CN(c1ccccc1Nc1nc(Nc2ccc(N3CC4(CN(C(=O)C5CCN(CC6CCN(c7ccc8c(c7)C(=O)N(C7CCC(=O)NC7=O)C8=O)CC6)CC5)C4)C3)c(F)c2)ncc1Cl)S(C)(=O)=O (centres unmarked) [Example 137, N-(2-((5-chloro-2-((4-(6-(1-((1-(2-(2,6-dioxopiperidin-3-yl)-1,3-dioxoisoindolin-5-yl)piperidin-4-yl)methyl)piperidine-4-carbonyl)-2,6-diazaspiro[3.3]heptan-2-yl)-3-fluorophenyl)amino)pyrimidin-4-yl)amino)phenyl)-N-methylmethanesulfonamide] | 9.41 | 92.5 |
| COc1cc(N2CCC(N3CCN(CCC4CCN(c5ccc(N6CCC(=O)NC6=O)cc5)CC4)CC3)CC2)ccc1Nc1ncc(Cl)c(Nc2ccccc2NS(C)(=O)=O)n1 [Example 139, N-(2-((5-chloro-2-((4-(4-(4-(2-(1-(4-(2,4-dioxotetrahydropyrimidin-1(2H)-yl)phenyl)piperidin-4-yl)ethyl)piperazin-1-yl)piperidin-1-yl)-2-methoxyphenyl)amino)pyrimidin-4-yl)amino)phenyl) methanesulfonamide] | 53.6 | 75.7 |
| COc1cc(N2CCC(N3CCN(C(=O)CCCCN4CCN(c5ccc6c(c5)C(=O)N(C5CCC(=O)NC5=O)C6=O)CC4)CC3)CC2)ccc1Nc1ncc(Cl)c(Nc2ccccc2NS(C)(=O)=O)n1 (centres unmarked) [Example 141, N-(2-((5-chloro-2-((4-(4-(4-(5-(4-(2-(2,6-dioxopiperidin-3-yl)-1,3-dioxoisoindolin-5-yl)piperazin-1-yl)pentanoyl)piperazin-1-yl)piperidin-1-yl)-2-methoxyphenyl)amino)pyrimidin-4-yl)amino)phenyl)methanesulfonamide] | 19.2 | 82 |
| COc1cc(N2CCC(N3CCN(C(=O)C4CCN(CC5CCN(c6ccc7c(c6)C(=O)N(C6CCC(=O)NC6=O)C7=O)CC5)CC4)CC3)CC2)ccc1Nc1ncc(Cl)c(Nc2ccccc2NS(C)(=O)=O)n1 (centres unmarked) [Example 142, N-(2-((5-chloro-2-((4-(4-(4-(1-((1-(2-(2,6-dioxopiperidin-3-yl)-1,3-dioxoisoindolin-5-yl)piperidin-4-yl)methyl)piperidine-4-carbonyl)piperazin-1-yl)piperidin-1-yl)-2-methoxyphenyl)amino)pyrimidin-4-yl)amino)phenyl)methanesulfonamide] | 6.22 | 89.4 |

Further compounds by falling DC50, results first:

| DC50 [nM] | Dmax [%] | SMILES |
| --- | --- | --- |
| 112 | 81.1 | COc1cc(N2CCC(N3CCN(CCc4ccc(CN5CCC(=O)NC5=O)cc4)CC3)CC2)ccc1Nc1ncc(Cl)c(Nc2ccccc2P(C)(C)=O)n1 [Example 111, 1-(4-(2-(4-(1-(4-((5-chloro-4-((2-(dimethylphosphoryl)phenyl)amino)pyrimidin-2-yl)amino)-3-methoxyphenyl)piperidin-4-yl)piperazin-1-yl)ethyl)benzyl)dihydropyrimidine-2,4(1H,3H)-dione] |
| 81.6 | 80.8 | COc1cc(N2CCC(N3CCN(CCc4ccc(N5CCC(=O)NC5=O)cc4)CC3)CC2)ccc1Nc1ncc(Cl)c(Nc2ccccc2N(C)S(C)(=O)=O)n1 [Example 124, N-(2-((5-chloro-2-((4-(4-(4-(4-(2,4-dioxotetrahydropyrimidin-1(2H)-yl)phenethyl)piperazin-1-yl)piperidin-1-yl)-2-methoxyphenyl)amino)pyrimidin-4-yl)amino)phenyl)-N-methylmethanesulfonamide] |
| 68.5 | 79.5 | CN(c1ccccc1Nc1nc(Nc2ccc(N3CC4(CN(CCc5ccc(NC6CCC(=O)NC6=O)cc5)C4)C3)c(F)c2)ncc1Cl)S(C)(=O)=O (centres unmarked) [Example 136, N-(2-((5-chloro-2-((4-(6-(4-((2,6-dioxopiperidin-3-yl)amino)phenethyl)-2,6-diazaspiro[3.3]heptan-2-yl)-3-fluorophenyl)amino)pyrimidin-4-yl)amino)phenyl)-N-methylmethanesulfonamide] |
| 68.3 | 80.1 | COc1cc(N2CCC(NCCCCCc3ccc(C4CCC(=O)NC4=O)cc3)CC2)ccc1Nc1ncc(Cl)c(Nc2ccccc2N(C)S(C)(=O)=O)n1 (centres unmarked) [Example 131, N-(2-((5-chloro-2-((4-(4-((5-(4-(2,6-dioxopiperidin-3-yl)phenyl)pentyl)amino)piperidin-1-yl)-2-methoxyphenyl)amino)pyrimidin-4-yl)amino)phenyl)-N-methylmethanesulfonamide] |
| 38 | 77.6 | CN(c1ccccc1Nc1nc(Nc2ccc(N3CC4(CN(CCc5ccc(C6CCC(=O)NC6=O)cc5)C4)C3)c(F)c2)ncc1Cl)S(C)(=O)=O (centres unmarked) [Example 134, N-(2-((5-chloro-2-((4-(6-(4-(2,6-dioxopiperidin-3-yl)phenethyl)-2,6-diazaspiro[3.3]heptan-2-yl)-3-fluorophenyl)amino)pyrimidin-4-yl)amino)phenyl)-N-methylmethanesulfonamide] |
| 19 | 80.8 | COc1cc(N2CCC(N3CCN(CCC4CCN(c5ccc(C6CCC(=O)NC6=O)cc5)CC4)CC3)CC2)ccc1Nc1ncc(Cl)c(Nc2ccccc2N(C)S(C)(=O)=O)n1 (centres unmarked) [Example 121, N-(2-((5-chloro-2-((4-(4-(4-(2-(1-(4-(2,6-dioxopiperidin-3-yl)phenyl)piperidin-4-yl)ethyl)piperazin-1-yl)piperidin-1-yl)-2-methoxyphenyl)amino)pyrimidin-4-yl)amino)phenyl)-N-methylmethanesulfonamide] |

— patent US20230265116A1, “DEGRADATION OF (EGFR) BY CONJUGATION OF EGFR INHIBITORS WITH E3 LIGASE LIGAND AND METHODS OF USE” (BEIGENE, LTD., priority 2020, published 2023)
